Patent US11891387B2, “Monoacylglycerol lipase modulators” (Janssen Pharmaceutica NV, priority 2020, dated 2024)

The compounds below were run against human MGL from HeLa cells (Homo sapiens (Human), UniProt Q99685) (assay: MGL in vitro activity assay: cleavage of [glycerol-1,3-3H]-oleyl glycerol, activated carbon filtration). Settings: 300 nM [Glycerol-1,3-3H]-oleyl glycerol, endogenously expressed MGL from HeLa cells, one hour incubation.
Assay type: biochemical
Summary of the method: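 Endogenous human MGL from HeLa cells or homogenates was incubated with compound and 300 nM [glycerol-1,3-3H]-oleyl glycerol for one hour. Released [3H]-glycerol passing an activated carbon filter was counted as the measure of activity. Screening used 10 μM compound, with IC50 top concentration set empirically.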

Chain of human MGL from HeLa cells (Q99685 whole entry): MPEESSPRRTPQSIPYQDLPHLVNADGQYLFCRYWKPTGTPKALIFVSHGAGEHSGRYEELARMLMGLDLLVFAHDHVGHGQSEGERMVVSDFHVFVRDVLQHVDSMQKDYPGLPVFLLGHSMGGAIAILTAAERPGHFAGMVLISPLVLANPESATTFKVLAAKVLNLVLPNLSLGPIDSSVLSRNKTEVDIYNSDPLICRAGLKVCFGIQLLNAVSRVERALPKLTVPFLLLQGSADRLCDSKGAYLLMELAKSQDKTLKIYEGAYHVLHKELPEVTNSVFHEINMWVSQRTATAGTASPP

IC50	Compound
260 nM	C[C@H]1c2nn(C)c(-c3cc(C(F)(F)F)nn3C)c2CCN1C(=O)c1cc2scnc2cn1 [Example 122, (S)-(2,7-Dimethyl-3-(1-methyl-3-(trifluoromethyl)-1H-pyrazol-5-yl)-2,4,5,7-tetrahydro-6H-pyrazolo[3,4-c]pyridin-6-yl)(thiazolo[4,5-c]pyridin-6-yl)methanone]
950 nM	C[C@H]1c2nn(C)c(-c3cc(C(F)(F)F)nn3C)c2CCN1C(=O)c1cnc2ncsc2c1 [Example 123, (S)-(2,7-Dimethyl-3-(1-methyl-3-(trifluoromethyl)-1H-pyrazol-5-yl)-2,4,5,7-tetrahydro-6H-pyrazolo[3,4-c]pyridin-6-yl)(thiazolo[4,5-b]pyridin-6-yl)methanone]
87 nM	Cc1cc2ncsc2cc1C(=O)N1CCc2c(nn(C)c2-c2cc(C(F)(F)F)nn2C)[C@@H]1C [Example 134, (S)-(2,7-Dimethyl-3-(1-methyl-3-(trifluoromethyl)-1H-pyrazol-5-yl)-2,4,5,7-tetrahydro-6H-pyrazolo[3,4-c]pyridin-6-yl)(5-methylbenzo[d]thiazol-6-yl)methanone]
22 nM	Cc1cc(C(=O)N2CCc3c(nn(C)c3-c3cc(C(F)(F)F)nn3C)[C@@H]2C)cc2scnc12 [Example 135, (S)-(2,7-Dimethyl-3-(1-methyl-3-(trifluoromethyl)-1H-pyrazol-5-yl)-2,4,5,7-tetrahydro-6H-pyrazolo[3,4-c]pyridin-6-yl)(4-methylbenzo[d]thiazol-6-yl)methanone]

Further lines, the compound ahead of its results:

Compound	IC50
C[C@H]1c2nn(C)c(-c3cc(C(F)(F)F)n(C)n3)c2CCN1C(=O)c1ccc2ncsc2c1 [Example 120, (S)-Benzo[d]thiazol-6-yl(2,7-dimethyl-3-(1-methyl-5-(trifluoromethyl)-1H-pyrazol-3-yl)-2,4,5,7-tetrahydro-6H-pyrazolo[3,4-c]pyridin-6-yl)methanone]	46 nM
COc1nccc(C(=O)N2CCc3c(nn(C)c3-c3cc(C(F)(F)F)n(C)n3)[C@@H]2C)c1C [Example 121, (S)-(2,7-Dimethyl-3-(1-methyl-5-(trifluoromethyl)-1H-pyrazol-3-yl)-2,4,5,7-tetrahydro-6H-pyrazolo[3,4-c]pyridin-6-yl)(2-methoxy-3-methylpyridin-4-yl)methanone]	83 nM
Cc1cc(C(=O)N2CCc3c(nn(C)c3-c3cc(C(F)(F)F)n(C)n3)[C@@H]2C)c2cc(F)ccc2n1 [Example 132, (S)-(2,7-Dimethyl-3-(1-methyl-5-(trifluoromethyl)-1H-pyrazol-3-yl)-2,4,5,7-tetrahydro-6H-pyrazolo[3,4-c]pyridin-6-yl)(6-fluoro-2-methylquinolin-4-yl)methanone]	27 nM
Cc1c(C(=O)N2CCc3c(nn(C)c3-c3cc(C(F)(F)F)nn3C)[C@@H]2C)ccc2ncsc12 [Example 133, (S)-(2,7-Dimethyl-3-(1-methyl-3-(trifluoromethyl)-1H-pyrazol-5-yl)-2,4,5,7-tetrahydro-6H-pyrazolo[3,4-c]pyridin-6-yl)(7-methylbenzo[d]thiazol-6-yl)methanone]	24 nM
